The results in this text go back to patent US5807754A, “Combinatorial synthesis and high-throughput screening of a Rev-inhibiting arylidenediamide array” (Arqule, Inc., priority 1995, dated 1998).

Like-named read-outs stand apart in the source and are kept apart here.

For the assay, the target named is Rev-RRE complexes (recombinant Rev protein, synthetic 32P-labelled RRE RNA) (Human immunodeficiency virus type 1 group M subtype B, UniProt P04618). The assay is described as follows: Rev-RRE binding inhibition, nitrocellulose filter binding assay with scintillation counting. The arrangement: species or system Human Immunodeficiency Virus (HIV). The method, then: The array was assayed in parallel at 6 ug/mL in reaction mixtures containing recombinant Rev protein, synthetic 32P-labelled RRE RNA, and a non-specific competitor RNA. The reaction is then filtered through nitrocellulose filters and washed with a low salt binding buffer. Rev-RRE complexes are retained in the filter while the unbound RRE filters through. Rev-RRE complexes retained in the filter are then quantified by scintillation counting. The percentage of inhibition is calculated according to the formula: […]
where CPM1 is the activity obtained in the presence of the drug and CPM0 is the average activity in the absence of the drug. […] Raising the criterion of interest to 90% inhibition of complex formation afforded a set of 55 compounds which were examined for common functionality. These 55 compounds and their inhibition values are listed in the following table, where A, B, and C are the structural diversity elements of the scaffold: […]

Setting [1] is: array assayed at 6 ug/mL, non-specific competitor RNA, read-out: % inh.
Setting [2] is: read-out: % inh, array assayed at 6 ug/mL, non-specific competitor RNA.

Rev-RRE complexes (recombinant Rev protein, synthetic 32P-labelled RRE RNA), sequence (P04618 whole entry, looked up, one chain of several): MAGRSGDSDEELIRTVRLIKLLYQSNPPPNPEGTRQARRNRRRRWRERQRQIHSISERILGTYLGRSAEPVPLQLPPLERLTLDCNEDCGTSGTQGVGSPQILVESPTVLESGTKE

Take `O=C(NC1CCCc2ccccc21)/C(=C/c1ccc(C(F)(F)F)cc1)NC(=O)c1ccc2ccccc2c1` (stereo not shown): the inhibition at 6 µg/mL under setting [1] was found to be 95%. Still for that read-out and setting: the figure for `O=C(NC(c1ccccc1)c1ccccc1)/C(=C/c1cccc(C(F)(F)F)c1)NC(=O)c1ccc(Cl)cc1Cl` is 96%. The same measure, in the same setting: next, `O=C(NC1CCCc2ccccc21)/C(=C/c1ccc(Cl)cc1)NC(=O)c1ccc(C(F)(F)F)cc1` (stereo not shown): 92%; `Cc1ccc(C(=O)N/C(=C\c2ccc(F)cc2F)C(=O)NCC(O)c2ccccc2)cc1` (stereo not shown): 96%.

With `O=C(NCc1ccco1)/C(=C/c1cccc(C(F)(F)F)c1)NC(=O)c1ccc2ccccc2c1`, the inhibition at 6 µg/mL under setting [1] was found to be 93%. As for `O=C(NCC(c1ccccc1)c1ccccc1)/C(=C/c1cccc(C(F)(F)F)c1)NC(=O)c1ccc2ccccc2c1`, under setting [1], the inhibition at 6 µg/mL came out at 93%. Regarding `O=C(NCc1cccc2ccccc12)/C(=C/c1cccc(C(F)(F)F)c1)NC(=O)c1ccc2ccccc2c1`, the inhibition at 6 µg/mL under setting [1] was determined as 94%. Still for that read-out and setting: the figure for `O=C(NC1CCCc2ccccc21)/C(=C/c1cccc(Oc2ccccc2)c1)NC(=O)c1ccc(C(F)(F)F)cc1` (stereo not shown) is 90%. For `O=C(NC1CCCc2ccccc21)/C(=C/c1cccc(C(F)(F)F)c1)NC(=O)c1ccc2ccccc2c1` (stereo not shown), the “% inh” value (array assayed at 6 ug/mL, non-specific competitor RNA, listed as 2-napbthyl / α,α,α-trifluoro-m-toluyl / 1,2,3,4-tetrahydronaphth-1-yl) is reported as 90%. For the same compound, the inhibition at 6 µg/mL under setting [1] came out at 97%. With `O=C(NC(c1ccccc1)c1ccccc1)/C(=C/c1ccc(C(F)(F)F)cc1)NC(=O)c1ccc2ccccc2c1`, the inhibition at 6 µg/mL under setting [2] was determined as 96%. `CCC(CC)NC(=O)/C(=C/c1cccc(C(F)(F)F)c1)NC(=O)c1ccc2ccccc2c1`: the inhibition at 6 µg/mL under setting [1] stood at 93%. As for `CC(C)CC(CO)NC(=O)/C(=C/c1cccc(C(F)(F)F)c1)NC(=O)c1ccc2ccccc2c1` (stereo not shown), the inhibition at 6 µg/mL under setting [1] was determined as 94%. On the same count and under the same terms, next, `O=C(NCC(O)c1ccccc1)/C(=C/c1ccc(Cl)cc1Cl)NC(=O)c1ccc2ccccc2c1` (stereo not shown): 95%; `O=C(NC(c1ccccc1)c1ccccc1)/C(=C/c1ccc(OC(F)(F)F)cc1)NC(=O)c1ccc2ccccc2c1`: 96%.

Regarding `Cc1ccc(CCNC(=O)/C(=C/c2cccc(Oc3ccccc3)c2)NC(=O)c2ccc(Cl)cc2Cl)cc1`, the inhibition at 6 µg/mL under setting [1] worked out at 95%. In the case of `O=C(NCC(c1ccccc1)c1ccccc1)/C(=C/c1ccc(C(F)(F)F)cc1)NC(=O)c1ccc2ccccc2c1`, under setting [1], the inhibition at 6 µg/mL turned out to be 95%. On the same count and under the same terms, next, `O=C(N/C(=C\c1ccc(C(F)(F)F)cc1)C(=O)N1CCN(c2ccccc2)CC1)c1ccc(C(F)(F)F)cc1`: 91%. Regarding `O=C(NC1CCCc2ccccc21)/C(=C/c1cccc(C(F)(F)F)c1)NC(=O)c1ccc(Cl)cc1Cl` (stereo not shown), the inhibition at 6 µg/mL under setting [1] was determined as 90%. In the case of `O=C(NC(c1ccccc1)c1ccccc1)/C(=C/c1cccc(C(F)(F)F)c1)NC(=O)c1ccc2ccccc2c1`, for the setting “array assayed at 6 ug/mL, non-specific competitor RNA”, the “% inh” value stood at 93%. For the same compound, under setting [1], the inhibition at 6 µg/mL was determined as 96%. `CC(CCc1ccccc1)NC(=O)/C(=C/c1ccc(C(F)(F)F)cc1)NC(=O)c1ccc2ccccc2c1` (stereo not shown): the inhibition at 6 µg/mL under setting [2] was 96%. For the compound `O=C(NC(c1ccccc1)c1ccccc1)/C(=C/c1ccc(-c2ccccc2)cc1)NC(=O)c1ccc(Cl)cc1Cl`, the inhibition at 6 µg/mL under setting [1] came to 96%. Same read-out and setting: next, `O=C(N/C(=C\c1cccc(C(F)(F)F)c1)C(=O)N1CCC(Cc2ccccc2)CC1)c1ccc2ccccc2c1`: 95%; `Cc1ccc(CCNC(=O)/C(=C/c2ccc(-c3ccccc3)cc2)NC(=O)c2ccc(Cl)cc2Cl)cc1`: 94%. On to `O=C(NC1CCc2ccccc21)/C(=C/c1ccc(C(F)(F)F)cc1)NC(=O)c1ccc2ccccc2c1` (stereo not shown), for which the inhibition at 6 µg/mL under setting [1] amounted to 92%. In the case of `O=C(NCC(c1ccccc1)c1ccccc1)/C(=C/c1ccc(F)cc1)NC(=O)c1ccc2ccccc2c1`, the inhibition at 6 µg/mL under setting [1] stood at 90%.

Consider `O=C(Nc1cccnc1)/C(=C/c1ccccc1F)NC(=O)c1ccccc1` [phenyl / 2-fluorophenyl / 3-pyridinyl], for which the inhibition at 6 µg/mL under setting [1] worked out at 91%.

For `O=C(NCc1cccc2ccccc12)/C(=C/c1cnc2ccccc2c1)NC(=O)c1ccc2ccccc2c1`, under setting [1], the inhibition at 6 µg/mL was 96%. On the same count and under the same terms, the figure for `O=C(NC(c1ccccc1)c1ccccc1)/C(=C/c1cccc(Cl)c1)NC(=O)c1ccc2ccccc2c1` is 92%; for `O=C(NC1CCc2ccccc21)/C(=C/c1cccc(C(F)(F)F)c1)NC(=O)c1ccc2ccccc2c1` (stereo not shown) it is 92%; for `O=C(NC1CCCCC1)/C(=C/c1ccccc1)NC(=O)c1ccc(Cl)cc1Cl` [2,4-dichlorophenyl / phenyl / cyclohexyl] it is 98%.

Consider `O=C(N/C(=C\c1ccc(C(F)(F)F)cc1)C(=O)N1CCC(Cc2ccccc2)CC1)c1ccc2ccccc2c1`, for which the inhibition at 6 µg/mL under setting [1] was 91%. Turning to `O=C(NC(c1ccccc1)c1ccccc1)/C(=C/c1cccc(Oc2ccccc2)c1)NC(=O)c1ccc(C(F)(F)F)cc1`, the inhibition at 6 µg/mL under setting [1] stood at 94%. The same measure, in the same setting: next, `O=C(NCc1ccccc1)/C(=C/c1ccc(-c2ccccc2)cc1)NC(=O)c1ccc(Cl)cc1Cl`: 94%; `O=C(Nc1cccnc1)/C(=C/c1ccc(Cl)cc1Cl)NC(=O)c1ccc2ccccc2c1`: 91%. Same read-out and setting: next, `COc1cccc(/C=C(\NC(=O)c2ccc3ccccc3c2)C(=O)NC(c2ccccc2)c2ccccc2)c1` [2-naphthyl / m-anisyl / diphenylmethyl]: 94%; `O=C(NCC(c1ccccc1)c1ccccc1)/C(=C/c1cccc(C(F)(F)F)c1)NC(=O)c1ccc(Cl)cc1Cl`: 93%. On to `O=C(NCCc1ccccc1)/C(=C/c1ccc(-c2ccccc2)cc1)NC(=O)c1ccc(Cl)cc1Cl`, for which the inhibition at 6 µg/mL under setting [1] turned out to be 91%.

For `Cc1ccc(CCNC(=O)/C(=C/c2cccc(C(F)(F)F)c2)NC(=O)c2ccc3ccccc3c2)cc1`, the inhibition at 6 µg/mL under setting [1] was found to be 96%. Regarding `O=C(NC1CCCc2ccccc21)/C(=C/c1ccc(OC(F)(F)F)cc1)NC(=O)c1ccc2ccccc2c1` (stereo not shown), the inhibition at 6 µg/mL under setting [1] stood at 94%. Still for that read-out and setting: the figure for `O=C(NCc1cccc2ccccc12)/C(=C/c1ccc(-c2ccccc2)cc1)NC(=O)c1ccc(Cl)cc1Cl` is 90%. As to `O=C(Nc1cccnc1)/C(=C/c1cc(F)cc(F)c1)NC(=O)c1ccc(Cl)cc1Cl`, under setting [2], the inhibition at 6 µg/mL was 91%. Regarding `Cc1ccc(CCNC(=O)/C(=C/c2ccc(C(F)(F)F)cc2)NC(=O)c2ccc(C(F)(F)F)cc2)cc1`, the inhibition at 6 µg/mL under setting [1] came to 95%.

On to `O=C(N/C(=C\c1ccc(C(F)(F)F)cc1)C(=O)N1CCN(c2cccc(C(F)(F)F)c2)CC1)c1ccc(Cl)cc1Cl`, for which the inhibition at 6 µg/mL under setting [1] turned out to be 90%. As to `O=C(NC1CCCc2ccccc21)/C(=C/c1ccc(-c2ccccc2)cc1)NC(=O)c1ccc(Cl)cc1Cl` (stereo not shown), the inhibition at 6 µg/mL under setting [1] stood at 92%.

For the compound `O=C(NCCCc1ccccc1)/C(=C/c1ccc(C(F)(F)F)cc1)NC(=O)c1ccc2ccccc2c1`, the inhibition at 6 µg/mL under setting [1] was determined as 91%. Same read-out and setting: the figure for `O=C(NC1CCCc2ccccc21)/C(=C/c1ccc(C(F)(F)F)cc1)NC(=O)c1ccc(C(F)(F)F)cc1` (stereo not shown) is 94%; for `O=C(NCC(c1ccccc1)c1ccccc1)/C(=C/c1cc(F)cc(F)c1)NC(=O)c1ccc(Cl)cc1Cl` it is 94%; for `Cc1ccc(C(=O)N/C(=C\c2ccccc2Cl)C(=O)NCc2cccc3ccccc23)cc1` it is 90%. The same measure, in the same setting: next, `O=C(N/C(=C\c1cccc(Oc2ccccc2)c1)C(=O)N1CCN(c2ccccc2)CC1)c1ccc(C(F)(F)F)cc1`: 90%; `Cc1ccc(C(=O)N/C(=C\c2ccccc2Cl)C(=O)NCCCN2CCOCC2)cc1`: 95%; `O=C(NC1CCc2ccccc21)/C(=C/c1ccc(-c2ccccc2)cc1)NC(=O)c1ccc(Cl)cc1Cl` (stereo not shown): 90%. For the compound `COc1cccc(/C=C(\NC(=O)c2ccc3ccccc3c2)C(=O)NCCc2ccccc2)c1` [2-naphthyl / m-anisyl / phenethyl], the inhibition at 6 µg/mL under setting [1] came out at 91%. On the same count and under the same terms, the figure for `O=C(NCc1cccc2ccccc12)/C(=C/c1ccc(F)cc1F)NC(=O)c1ccc2ccccc2c1` is 93%.
